Target: T1, flag-tag fused TxRIIα protein (Homo sapiens, UniProt Q9NNW7)
T1 construct: made in house
Experiment: Inhibitor assay (DTNB assay of TxR activity)
Type: biochemical
Details: diluted series of inhibitor; 1 µM flag-tag fused TxRIIα protein, 1 mM NADPH, 10 mM DTNB, pH 7.2; absorbance at 412 nm at 25°C for 5 min (Figure 5)
Description: DTNB assay is a method in which TNB caused by the TxR activity from DTNB is measured by the absorbance of a thiol at 412 nm based on the following reaction formula. The purified tag fused TxRIIα protein (1 to 50 µl) was added to the assay buffer 1 to mess up to 1.0 ml. The absorbance at 412 nm was measured at 25°C for 5 min (Figure 3). DTNB + NADPH + H^+ 2TNB + NADP^+
100 mM potassium phosphate pH 7.0, 10 mM EDTA, 0.25 mM NADPH, 0.2 mg/ml bovine serum albumin (BSA), 1% ethanol, 1 mM DTNB
To compare an enzyme activity of the TxRIIs by the present invention, obtained as a recombinant, and an activity of the natural TxR, an effect of an inhibitor was observed. As an inhibitor for the TxR activity, 1-chloro-2, 4-dinitrobenzene (CDNB) and 13-cis-retinoic acid was used. For confirming the TxR activity, the DTNB assay was used.
The diluted series of the inhibitors was prepared with 0.2 ml of HE buffer (100 mM HEPES buffer pH 7.2, 5 mM EDTA) . The tag-fused TxRIIαprotein was prepared at 3 µM and 0.2 ml thereof was added thereto, then 0.2 ml of HE buffer containing 3 mM NADPH and 30 mM DTNB was added thereto. The reaction system of this solution is composed of 100 mM HEPES buffer pH 7.2, 5 mM EDTA, 1 µM flag-tag fused TxRIIα protein, 1 mM NADPH, and 10 mM DTNB. The […] was measured by absorbance of a thiol at 412 nm at 25°C for 5min.

T1 sequence (Q9NNW7 37-524): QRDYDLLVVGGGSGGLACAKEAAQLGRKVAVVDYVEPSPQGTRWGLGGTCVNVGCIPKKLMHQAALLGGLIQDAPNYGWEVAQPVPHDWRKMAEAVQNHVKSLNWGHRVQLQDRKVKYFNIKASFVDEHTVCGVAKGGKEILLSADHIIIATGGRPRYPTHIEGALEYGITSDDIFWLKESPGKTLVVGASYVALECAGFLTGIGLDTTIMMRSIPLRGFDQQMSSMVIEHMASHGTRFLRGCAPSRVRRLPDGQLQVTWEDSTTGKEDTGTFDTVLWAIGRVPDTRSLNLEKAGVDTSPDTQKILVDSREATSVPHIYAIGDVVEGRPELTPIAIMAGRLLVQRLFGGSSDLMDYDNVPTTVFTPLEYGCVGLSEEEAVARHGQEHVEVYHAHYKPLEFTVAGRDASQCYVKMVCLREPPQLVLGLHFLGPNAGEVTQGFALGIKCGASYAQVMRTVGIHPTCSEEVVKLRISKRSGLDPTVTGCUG

Compound | inhibition of the TxR activity of the purified flag-tag fused TxRIIα protein
CC1=C(/C=C/C(C)=C/C=C/C(C)=C\C(=O)O)C(C)(C)CCC1 [13-cis retinoic acid, 13-cis-retinoic acid] | effectively inhibited
O=[N+]([O-])c1ccc(Cl)c([N+](=O)[O-])c1 [CDNB, 1-chloro-2,4-dinitrobenzene] | effectively inhibited
